The text below walks through data of patent US8506926B2, “[18F]-furanosylpurine derivatives and uses thereof” (priority 2003, dated 2013).

Data set [1] concerns human colon tumor xenografts. The following applies: Carson; Takahashi; cited from earlier work.
Data set [2] can be described thus: Blood clearance after intravenous injection. The following applies: blood samples 1-120 minutes after i.v. injection. Format: in vivo, athymic nude mice. The procedure:
Activity injected into each mouse was measured in a dose calibrator (Capintec). […] Activity in each blood sample was measured by a gamma counter, standardized for injected dose, and % injected dose per gram was calculated. Mean % injected dose per gram was plotted against time to obtain the blood clearance curve for each compound. Animals were anesthetized with Nembutal (40 mg/kg) and sacrificed at 2 hours post-injection. All organs including tumor were separated and weighed. Radioactivity in each organ was measured using a gamma counter. For each mouse, radioactivity uptake was expressed as % injected dose per gram, and as ratio of organ to blood uptake.

Data set [3] can be described thus: Micro-PET imaging studies. It counts as in vivo. The following applies: for micro-PET image findings: 30 minutes, 1 hour and 2 hours post-injection; for wash out of activity with time (micro-PET): up to 2 hours post-injection. The procedure:
PET imaging was performed using a Micro-PET scanner (Concorde Microsystems, Inc.), with 120 transaxial planes and spatial resolution of 2.0 mm, at 30 minutes, 1 hour and 2 hours post-injection. Images were reconstructed using Ordered Subset Expectation Maximization (OSEM) algorithm.

Data set [4] has as its target T1, herpes simplex virus thymidine kinase (HSV-tk) (Human herpesvirus 1, UniProt P0DTH5).
T1 construct: expressed in transfected cells
Put plainly: Tumor uptake in HSV-tk transduced versus wild type tumors on the same animal. Format: in vivo. The following applies: tumor uptake in transduced and wild type cells comparable.

The conditions of data set [5]: mouse, in vivo.
The conditions of data set [6]: cited from earlier work.

T1 sequence (P0DTH5 whole entry): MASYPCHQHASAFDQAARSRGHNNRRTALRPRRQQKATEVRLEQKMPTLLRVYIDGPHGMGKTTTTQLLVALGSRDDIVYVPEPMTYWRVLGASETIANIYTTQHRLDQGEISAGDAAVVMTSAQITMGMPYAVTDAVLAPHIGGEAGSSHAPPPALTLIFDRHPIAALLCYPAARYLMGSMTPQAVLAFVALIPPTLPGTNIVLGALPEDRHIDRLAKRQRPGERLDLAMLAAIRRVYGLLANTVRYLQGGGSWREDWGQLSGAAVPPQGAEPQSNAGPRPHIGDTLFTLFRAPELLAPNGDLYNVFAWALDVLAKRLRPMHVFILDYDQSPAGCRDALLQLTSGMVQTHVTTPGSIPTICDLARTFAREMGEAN

As to `Nc1nc(Cl)nc2c1ncn2[C@@H]1O[C@H](CO)[C@@H](O)[C@@H]1F` [2′-deoxy-2′-fluoro-2-chloro-9-β-D-arabinofuranosyladenine], in data set [1], the “activity against human colon tumor xenografts” value is “active”.

For `Nc1ncnc2c1ncn2[C@@H]1O[C@H](CO)[C@@H](O)[C@@H]1[18F]` [[^18F]-FAA, 2′-deoxy-2′-[^18F]-fluoro-9-β-D-arabinofuranosyladenine], the blood clearance pattern entry in data set [2] is “clear rapidly from the blood initially, then slow down after 20 minutes post-injection”. Further, in data set [3], the micro-PET image findings entry is “high uptake in spleen” and the “wash out of activity with time (micro-PET)” value is “wash out of activity with time was minimal”. Also, the “substrate for HSV-tk” value in data set [4] is “not a substrate for HSV-tk”. Also, in data set [5], the Uptake in kidney stood at 3.5%, the Uptake in liver came out at 2.4%, the “tissue of highest uptake” value was “spleen” and the “tumor uptake compared to the background activity” value is reported as “more than 3 fold”. The “uptake in tumors compared to blood” value in data set [5] is reported as 3.3 fold.

In the case of `Nc1ncnc2c1ncn2[C@@H]1O[C@H](CO)[C@H]([18F])[C@H]1O` [[^18F]-FXA, 3′-deoxy-3′-[^18F]-fluoro-9-β-D-xylofuranosyladenine], the blood clearance pattern result in data set [2] is on record as “clear rapidly from the blood initially, then slow down after 20 minutes post-injection”. In addition, in data set [3], the micro-PET image findings result is reported as “activity is in the heart” and the “wash out of activity with time (micro-PET)” value is recorded as “did not wash out in 2 hours post-injection”. In data set [5], the “tissue of highest uptake” value is listed as “heart” and the tumor/blood ratio result is recorded as “less than 1”.

`Nc1nc(=O)n([C@@H]2O[C@H](CO)[C@@H](O)[C@@H]2F)cc1[125I]` [[^125I] labeled FIAC, [^125I]-2′-fluoro-5-iodo-1-β-D-arabinofuranosylcytosine]: the deiodination in vivo result in data set [6] was “extensive deiodination in vivo”.
